What is called inhibition is the percentage by which the read-out fell short of the control.

T1 sequence (P05771 1-673 isoform P05771-2): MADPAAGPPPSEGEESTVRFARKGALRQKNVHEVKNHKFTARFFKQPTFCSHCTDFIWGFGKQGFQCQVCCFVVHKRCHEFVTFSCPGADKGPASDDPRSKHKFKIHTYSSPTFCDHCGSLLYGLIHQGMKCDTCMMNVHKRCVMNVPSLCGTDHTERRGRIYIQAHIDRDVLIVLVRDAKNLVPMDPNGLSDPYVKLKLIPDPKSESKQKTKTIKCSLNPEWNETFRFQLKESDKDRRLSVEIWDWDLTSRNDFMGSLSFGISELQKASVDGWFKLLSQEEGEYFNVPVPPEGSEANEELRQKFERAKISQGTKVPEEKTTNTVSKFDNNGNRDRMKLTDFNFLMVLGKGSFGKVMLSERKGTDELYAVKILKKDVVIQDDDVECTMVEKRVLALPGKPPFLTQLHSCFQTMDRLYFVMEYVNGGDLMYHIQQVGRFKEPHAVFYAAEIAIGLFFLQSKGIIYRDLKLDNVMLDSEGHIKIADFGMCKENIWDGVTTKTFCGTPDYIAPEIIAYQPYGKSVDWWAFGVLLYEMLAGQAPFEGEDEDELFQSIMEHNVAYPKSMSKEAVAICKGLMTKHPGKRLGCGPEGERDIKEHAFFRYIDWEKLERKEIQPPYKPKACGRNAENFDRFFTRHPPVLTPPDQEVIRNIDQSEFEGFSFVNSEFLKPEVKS

The assay addresses T1, human full-length recombinant PKC βII (Homo sapiens, UniProt P05771).
T1 construct: Active human full-length recombinant PKC βII; purchased Invitrogen GmbH, Darmstadt, Germany
The experiment in a line: Determination of PKC βII inhibition (Caliper mobility-shift kinase assay, phosphorylation of fluorescein peptide substrate). Format: biochemical. The conditions noted are these: final compound concentration 1.14 µM (±0.15 µM); 60 min incubation at 32 °C. A digest of the protocol: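 Active full-length PKC βII in pH 7.4 Hepes with MgCl2, CaCl2, PS, DAG and Triton X-100; substrate/ATP mix held 3 µM fluorescein peptide and 120 µM ATP before addition. Reaction ran 60 min at 32 °C, stopped with EDTA. Mobility-shift fractional turnover gave % inhibition at 1.14 µM (±0.15 µM) final compound.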
In the case of `Cc1cc(F)ccc1/C=C/c1n[nH]c2nc(-c3ccc(O)cc3)cc(C(=O)N3CCNCC3)c12` [Example 61, [3-[(E)-2-(4-Fluoro-2-methyl-phenyl)-vinyl]-6-(4-hydroxy-phenyl)-1H-pyrazolo[3,4-b]pyridin-4-yl]-piperazin-1-yl-methanone], the inhibition at 1.14 µM was determined as 86%. Consider `COc1cc(/C=C/c2n[nH]c3nc(-c4ccc(O)cc4)cc(C(=O)N4CCNCC4)c23)cc(OC)c1OC` [Example 62, {6-(4-hydroxy-phenyl)-3-[(E)-2-(3,4,5-trimethoxy-phenyl)-vinyl]-1H-pyrazolo[3,4-b]pyridin-4-yl}-piperazin-1-yl-methanone], for which the inhibition at 1.14 µM is 98%. In the case of `Cc1ccc(/C=C/c2n[nH]c3nc(-c4ccc(O)cc4)cc(C(=O)N4CCNCC4)c23)c(F)c1` [Example 63, [3-[(E)-2-(2-Fluoro-4-methyl-phenyl)-vinyl]-6-(4-hydroxy-phenyl)-1H-pyrazolo[3,4-b]pyridin-4-yl]-piperazin-1-yl-methanone], the inhibition at 1.14 µM turned out to be 97%. Take `O=C(c1cc(-c2ccc(O)cc2)nc2[nH]nc(/C=C/c3ccc4c(c3)CCO4)c12)N1CCNCC1` [Example 64, [3-[(E)-2-(2,3-Dihydrobenzofuran-5-yl)-vinyl]-6-(4-hydroxy-phenyl)-1H-pyrazolo[3,4-b]pyridin-4-yl]-piperazin-1-yl-methanone]: the inhibition at 1.14 µM worked out at 99%. In the case of `O=C(c1cc(-c2ccc(O)cc2)nc2[nH]nc(/C=C/c3ccc4c(c3)OCO4)c12)N1CCNCC1` [Example 65, [3-((E)-2-Benzo[1,3]dioxol-5-yl-vinyl)-6-(4-hydroxy-phenyl)-1H-pyrazolo[3,4-b]pyridin-4-yl]-piperazin-1-yl-methanone], the inhibition at 1.14 µM came out at 97%. Under `CN(C)C(=O)c1ccc(/C=C/c2n[nH]c3nc(-c4ccc(O)cc4)cc(C(=O)N4CCNCC4)c23)cc1` [Example 66, 4-{(E)-2-[6-(4-Hydroxy-phenyl)-4-(piperazine-1-carbonyl)-1H-pyrazolo[3,4-b]pyridin-3-yl]-vinyl}-N,N-dimethyl-benzamide] stands 99%; under `CCOc1ccc(/C=C/c2n[nH]c3nc(-c4ccc(O)cc4)cc(C(=O)N4CCNCC4)c23)cc1` [Example 67, [3-[(E)-2-(4-Ethoxy-phenyl)-vinyl]-6-(4-hydroxy-phenyl)-1 H-pyrazolo[3,4-b]pyridin-4-yl]-piperazin-1-yl-methanone], 99%. Under `O=C(c1cc(-c2ccc(O)cc2)nc2[nH]nc(/C=C/c3ccccc3C(F)(F)F)c12)N1CCNCC1` [Example 68, {6-(4-Hydroxy-phenyl)-3-[(E)-2-(2-trifluoromethyl-phenyl)-vinyl]-1H-pyrazolo[3,4-b]pyridin-4-yl}-piperazin-1-yl-methanone] stands 60%.

For `Cc1ccccc1/C=C/c1n[nH]c2nc(-c3ccc(O)cc3)cc(C(=O)N3CCNCC3)c12` [Example 69, [6-(4-Hydroxy-phenyl)-3-((E)-2-o-tolyl-vinyl)-1H-pyrazolo[3,4-b]pyridin-4-yl]-piperazin-1-yl-methanone], the inhibition at 1.14 µM came out at 94%. In the case of `O=C(c1cc(-c2ccc(O)cc2)nc2[nH]nc(/C=C/c3cc(Cl)cc(Cl)c3)c12)N1CCNCC1` [Example 70, [3-[(E)-2-(3,5-Dichloro-phenyl)-vinyl]-6-(4-hydroxy-phenyl)-1H-pyrazolo[3,4-b]pyridin-4-yl]-piperazin-1-yl-methanone], the inhibition at 1.14 µM turned out to be 98%. As to `O=C(c1cc(-c2ccc(O)cc2)nc2[nH]nc(/C=C/c3cccc(F)c3)c12)N1CCNCC1` [Example 71, [3-[(E)-2-(3-Fluoro-phenyl)-vinyl]-6-(4-hydroxy-phenyl)-1H-pyrazolo[3,4-b]pyridin-4-yl]-piperazin-1-yl-methanone], the inhibition at 1.14 µM was 96%. `O=C(c1cc(-c2ccc(O)cc2)nc2[nH]nc(/C=C/c3ccccc3F)c12)N1CCNCC1` [Example 72, [3-[(E)-2-(2-Fluoro-phenyl)-vinyl]-6-(4-hydroxy-phenyl)-1H-pyrazolo[3,4-b]pyridin-4-yl]-piperazin-1-yl-methanone]: the inhibition at 1.14 µM stood at 99%.

Turning to `COc1ccc(/C=C/c2n[nH]c3nc(-c4ccc(O)cc4)cc(C(=O)N4CCNCC4)c23)cc1C` [Example 73, {6-(4-Hydroxy-phenyl)-3-[(E)-2-(4-methoxy-3-methyl-phenyl)-vinyl]-1H-pyrazolo[3,4-b]pyridin-4-yl}-piperazin-1-yl-methanone], the inhibition at 1.14 µM worked out at 98%. The value for `CN(C)C(=O)N1CCN(C(=O)c2cc(-c3ccc(O)cc3)nc3[nH]nc(/C=C/c4ccccc4)c23)CC1` [Example 74, 4-[6-(4-Hydroxy-phenyl)-3-((E)-styryl)-1H-pyrazolo[3,4-b]pyridine-4-carbonyl]-piperazine-1-carboxylic acid dimethylamide] was 27%; that for `CC1(NC(=O)c2cc(-c3ccc(O)cc3)nc3[nH]nc(/C=C/c4ccccc4)c23)CCNCC1` [Example 75, 6-(4-Hydroxy-phenyl)-3-((E)-styryl)-1H-pyra-zolo[3,4-b]-pyridine-4-car-boxylic acid (4-methyl-piperidin-4-yl)-amide] was 93%. Under `CCCC[C@H]1CNCCN1C(=O)c1cc(-c2ccc(O)cc2)nc2[nH]nc(/C=C/c3ccccc3)c12` [Example 76, ((S)-2-Butyl-piperazin-1-yl)-[6-(4-hydroxy-phenyl)-3-((E)-styryl)-1H-pyra-zolo[3,4-b]-pyridin-4-yl]-methanone] stands 57%. For the compound `CCCC[C@@H]1CNCCN1C(=O)c1cc(-c2ccc(O)cc2)nc2[nH]nc(/C=C/c3ccccc3)c12` [Example 77, ((R)-2-Butyl-piperazin-1-yl)-[6-(4-hydroxy-phenyl)-3-((E)-styryl)-1H-pyra-zolo[3,4-b]-pyridin-4-yl]-methanone], the inhibition at 1.14 µM was 79%.

Turning to `O=C(c1cc(-c2ccc(O)cc2)nc2[nH]nc(/C=C/c3ccccc3)c12)N1CCC2(CCNC2)C1` (stereo not shown) [Example 78, (2,7-Diaza-spiro-[4.4]non-2-yl)-[6-(4-hydroxy-phenyl)-3-((E)-styryl)-1H-pyra-zolo[3,4-b]py-ridin-4-yl]-methanone], the inhibition at 1.14 µM is 94%. Under `O=C(c1cc(-c2ccc(O)cc2)nc2[nH]nc(/C=C/c3ccccc3)c12)N1CCNC2(CCCC2)C1` [Example 79, (6,9-Diaza-spiro-[4.5]dec-9-yl)-[6-(4-hydroxy-phenyl)-3-((E)-styryl)-1H-pyra-zolo[3,4-b]py-ridin-4-yl]-methanone] stands 97%; under `CCC(CC)C(=O)N1CCN(C(=O)c2cc(-c3ccc(O)cc3)nc3[nH]nc(/C=C/c4ccccc4)c23)CC1` [Example 80, 2-Ethyl-1-{4-[6-(4-hydroxy-phenyl)-3-((E)-styryl)-1H-pyra-zolo[3,4-b]pyri-dine-4-carbonyl]-piperazin-1-yl}-butan-1-one], 26%; under `O=C(CN1CCOCC1)N1CCN(C(=O)c2cc(-c3ccc(O)cc3)nc3[nH]nc(/C=C/c4ccccc4)c23)CC1` [Example 81, 1-{4-[6-(4-Hydroxy-phenyl)-3-((E)-styryl)-1H-pyrazolo[3,4-b]-pyridine-4-car-bonyl]-piperazin-1-yl}-2-mor-pholin-4-yl-ethanone], 45%. With `COC(=O)N1CCN(C(=O)c2cc(-c3ccc(O)cc3)nc3[nH]nc(/C=C/c4ccccc4)c23)CC1` [Example 82, 4-[6-(4-Hydroxy-phenyl)-3-((E)-styryl)-1H-pyra-zolo[3,4-b]pyri-dine-4-carbonyl]-piperazine-1-carboxylic acid methyl ester], the inhibition at 1.14 µM worked out at 56%. In the case of `O=C(c1cccnc1)N1CCN(C(=O)c2cc(-c3ccc(O)cc3)nc3[nH]nc(/C=C/c4ccccc4)c23)CC1` [Example 83, [6-(4-Hydroxy-phenyl)-3-((E)-styryl)-1H-pyra-zolo[3,4-b]pyri-din-4-yl]-[4-(pyridine-3-carbonyl)-piperazin-1-yl]-methanone], the inhibition at 1.14 µM came to 90%.

Turning to `CN(C)C(=O)CN1CCN(C(=O)c2cc(-c3ccc(O)cc3)nc3[nH]nc(/C=C/c4ccccc4)c23)CC1` [Example 84, 2-{4-[6-(4-Hydroxy-phenyl)-3-((E)-styryl)-1H-pyrazolo[3,4-b]-pyridine-4-carbo-nyl]-piperazin-1-yl}-N,N-dimethyl-acetamide], the inhibition at 1.14 µM came to 54%.

In the case of `O=C(c1cc(-c2ccc(O)cc2)nc2[nH]nc(/C=C/c3ccccc3)c12)N1CCN(C2CC2)CC1` [Example 85, (4-Cyclopropyl-piperazin-1-yl)-[6-(4-hydroxy-phenyl)-3-((E)-styryl)-1H-pyra-zolo[3,4-b]py-ridin-4-yl]-methanone], the inhibition at 1.14 µM was 19%. As to `CC(C)(O)C(=O)N1CCN(C(=O)c2cc(-c3ccc(O)cc3)nc3[nH]nc(/C=C/c4ccccc4)c23)CC1` [Example 86, 2-Hydroxy-1-{4-[6-(4-hydroxy-phenyl)-3-((E)-styryl)-1H-pyra-zolo[3,4-b]pyri-dine-4-carbonyl]-piperazin-1-yl}-2-methyl-propan-1-one], the inhibition at 1.14 µM came to 93%. `CC(C)(CO)C(=O)N1CCN(C(=O)c2cc(-c3ccc(O)cc3)nc3[nH]nc(/C=C/c4ccccc4)c23)CC1` [Example 87, 3-Hydroxy-1-{4-[6-(4-hydroxy-phenyl)-3-((E)-styryl)-1H-pyra-zolo[3,4-b]pyri-dine-4-carbonyl]-piperazin-1-yl}-2,2-dimethyl-propan-1-one]: the inhibition at 1.14 µM worked out at 94%.

Take `COCCC(=O)N1CCN(C(=O)c2cc(-c3ccc(O)cc3)nc3[nH]nc(/C=C/c4ccccc4)c23)CC1` [Example 88, 1-{4-[6-(4-Hydroxy-phenyl)-3-((E)-styryl)-1H-pyrazolo[3,4-b]-pyridine-4-carbonyl]-piperazin-1-yl}-3-methoxy-propan-1-one]: the inhibition at 1.14 µM is 89%.

The record behind these values is patent EP2567959B1, “6-(4-HYDROXY-PHENYL)-3-STYRYL-1H-PYRAZOLO[3,4-B]PYRIDINE-4-CARBOXYLIC ACID AMIDE DERIVATIVES AS KINASE INHIBITORS” (SANOFI, priority 2011, dated 2013).
